Experimental data taken from paper PMC4747835 (Journal of controlled release : official journal of the …, 2015).
Read-outs that look alike come from different tables or passages of the source.

What was measured:
in vivo = details: male, Sprague-Dawley, rat, 100 ug/kg
[1] = rat, in vivo
[2] = in vivo; cited from earlier work

## CSCC[C@@H]1NC(=O)[C@H](CC(C)C)NC(=O)[C@H](CCCNC(=N)N)NC(=O)[C@H](CO)NC(=O)[C@@H]2CSSC[C@@H]3NC(=O)[C@H](CO)NC(=O)CNC(=O)[C@H]([C@@H](C)O)NC(=O)[C@H](CSSC[C@H](N)C(=O)N[C@@H](CCCCN)C(=O)NCC(=O)N[C@@H](CCCCN)C(=O)NCC(=O)N[C@@H](C)C(=O)N[C@@H](CCCCN)C(=O)N2)NC(=O)[C@H](CSSC[C@@H](C(N)=O)NC(=O)[C@H](CCCCN)NC(=O)CNC(=O)[C@H](CO)NC(=O)[C@H](CCCNC(=N)N)NC3=O)NC(=O)[C@H](CC(=O)O)NC(=O)[C@H](Cc2ccc(O)cc2)NC1=O [ziconotide, Ziconotide]
In vivo
  level at 0.25 h: 992 ± 76.4 ng/mL
[1]
  AUC0-6 in CSF: 1.57 ± 0.44 µg·min/mL
  Cmax in CSF: 33.55 ± 7.39 ng/mL
  Tmax in CSF: 0.25 h
  bioavailability (AUC0-6) in CSF, fold less than i.v administration: ~ 3 fold
  elimination rate constant in CSF: 1.01 ± 0.34 h⁻¹
[1]; iv
  AUC0-6 in CSF: 4.98 ± 0.98 µg·min/mL
  Cmax in CSF: 37.78 ± 6.8 ng/mL
  Tmax in CSF: 2 h
[2]
  occurrence of meningitis: 3%
